Assay results taken from PubChem BioAssay (NCI).
Where “and” joins values, the source holds several entries; their conditions need not be identical. Equal entries are not always repeated.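 48-hour exposure; five concentrations; linearly interpolated endpoints. GI50: concentration for 50% inhibition of growth. TGI: total growth inhibition.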

Experiments:
Assay in all cases: NCI anticancer screen, dose series, 48 h
HOP-62 NSCLC = test system: HOP-62 NSCLC
NCI-H522 lung = test system: NCI-H522 lung
NCI-H23 lung = test system: NCI-H23 lung
SR leukemia = test system: SR leukemia
IGROV1 ovarian = test system: IGROV1 ovarian
DU-145 prostate = test system: DU-145 prostate
HT29 colon = test system: HT29 colon
SF-539 CNS = test system: SF-539 CNS
A549 NSCLC = test system: A549 NSCLC
HS 578T breast = test system: HS 578T breast

| SMILES | GI50 (HOP-62 NSCLC) [µM] | TGI (HOP-62 NSCLC) | GI50 (NCI-H522 lung) | TGI (NCI-H522 lung) | GI50 (NCI-H23 lung) [µM] | TGI (NCI-H23 lung) | GI50 (SR leukemia) | TGI (SR leukemia) | GI50 (IGROV1 ovarian) | TGI (IGROV1 ovarian) | GI50 (DU-145 prostate) | TGI (DU-145 prostate) | GI50 (HT29 colon) | TGI (HT29 colon) | GI50 (SF-539 CNS) | TGI (SF-539 CNS) | GI50 (A549 NSCLC) [µM] | TGI (A549 NSCLC) | GI50 (HS 578T breast) | TGI (HS 578T breast) |
| --- | --- | --- | --- | --- | --- | --- | --- | --- | --- | --- | --- | --- | --- | --- | --- | --- | --- | --- | --- | --- |
| O=C(O[C@H]1CN[C@H](C#Cc2cc3ncnc(Nc4ccc5c(ccn5Cc5cc(F)ccc5F)c4)c3s2)C1)N1CCOCC1 | 3.22 | 8.06 µM | 0.147 µM | 4.1 µM | 4.25 | 14.6 µM | 6.28 µM | 24.5 µM | 1.33 µM | > 16.7 µM | 2.17 µM | 5.52 µM | 3.86 µM | 8.97 µM | 3.42 µM | 7.83 µM | 3.07 | 10.1 µM | 0.488 µM | > 25 µM |
| Cc1ccccc1NC(=O)N/C(N)=N/c1nc(-c2cccc([N+](=O)[O-])c2)cs1 | 1.92 | 7.47 µM | 1.79 µM | > 100 µM | 1.94 | 6.49 µM | 0.594 µM | > 100 µM | 1.71 µM | 11.5 µM | 3.35 µM | 65.1 µM | 2.78 µM | 64 µM | 1.65 µM | 3.21 µM | 2.39 | 6.98 µM | 2.17 µM | 7.31 µM |
| NOCC(=O)O | > 100 | > 100 µM | 25.9 µM | > 100 µM | > 100 | > 100 µM | > 100 µM | > 100 µM | > 100 µM | > 100 µM | > 100 µM | > 100 µM | 58.7 µM | > 100 µM | > 100 µM | > 100 µM | 49.5 | > 100 µM | 71.1 µM | > 100 µM |
| CC(=O)CC(=O)Nc1ccc2ccccc2c1 |  | > 100 µM |  | > 100 µM |  | > 100 µM |  | > 100 µM |  | > 100 µM |  | > 100 µM |  | > 100 µM |  | > 100 µM |  | > 100 µM |  | > 100 µM |
| O=c1ccn(C2OC(CO)C(O)C2F)c(=O)[nH]1 (stereo unspecified) | > 1000 | > 1000 µM | > 1000 µM | > 1000 µM | > 1000 | > 1000 µM | > 1000 µM | > 1000 µM | > 1000 µM | > 1000 µM | > 1000 µM | > 1000 µM | > 1000 µM | > 1000 µM | > 1000 µM | > 1000 µM | > 1000 | > 1000 µM | > 1000 µM | > 1000 µM |
| CC[C@H](NC(=O)[C@H](C)NC)C(=O)N1C[C@@H](O)C[C@H]1Cc1c(-c2[nH]c3cc(F)ccc3c2C[C@@H]2C[C@H](O)CN2C(=O)[C@H](CC)NC(=O)[C@H](C)NC)[nH]c2cc(F)ccc12 | 27.5 | > 100 µM | 8.21 µM | 35.1 µM | > 65.3 | > 100 µM | 15.5 µM | > 100 µM |  |  | > 100 µM | > 100 µM | 62 µM | > 100 µM | < 0.01 µM | 0.146 µM | > 100 | > 100 µM | > 23.7 µM | > 100 µM |
| COC(=O)c1cc2c(cc1Cl)SC(N(N(C)C)S(=O)(=O)c1ccc(Br)s1)=NS2(=O)=O | 31.1 | > 100 µM | 17.9 µM | 42.1 µM | 28.5 | 70.9 µM | 13.3 µM | 35.4 µM | 29 µM | 94.3 µM | 26.1 µM | 86 µM | 21.3 µM | 56.9 µM | 21.2 µM | 51.5 µM | 32 | > 100 µM | 26.2 µM | 63.5 µM |
| O=C1c2ccccc2C(=O)N1CCCSc1ccccc1 |  | > 100 µM |  | > 100 µM |  | > 100 µM |  | > 100 µM |  | > 100 µM |  | > 100 µM |  | > 100 µM |  | > 100 µM |  | > 100 µM |  | > 100 µM |
| CO[C@@H]1/C=C\C=C(/C)C(=O)NC2=CC(=O)C(NCCN(C)C)=C(C[C@@H](C)C[C@@H](OC)[C@@H](O)[C@H](C)/C=C(\C)[C@H]1OC(N)=O)C2=O | 0.0859 | 17 µM and 19.1 µM | < 0.01 µM and 0.0228 µM | 0.709 µM and 3.57 µM | < 0.0125 | 7.14 µM |  | 10.6 µM | 0.0164 µM | 1.85 µM and 1.99 µM | < 0.01 µM | 5.13 µM and 12.4 µM | < 0.01 µM | 4.54 µM and 3.96 µM | < 0.01 µM and 0.0319 µM | 11.6 µM and 3.38 µM |  | 13.3 µM and 18.8 µM |  | 38.3 µM and 76.3 µM |
| Cn1ccnc1CC(C)(O)c1ccccc1 (stereo unspecified) |  | > 100 µM |  | > 100 µM |  | > 100 µM |  | > 100 µM |  | > 100 µM |  | > 100 µM |  | > 100 µM |  | > 100 µM |  | > 100 µM |  | > 100 µM |
| CN[C@@H](C)C(=O)N[C@H](C(=O)N1CCC[C@H]1C(=O)N[C@H]1c2ccccc2C[C@H]1OCC#CC#CCO[C@@H]1Cc2ccccc2[C@@H]1NC(=O)[C@@H]1CCCN1C(=O)[C@@H](NC(=O)[C@H](C)NC)C1CCCCC1)C1CCCCC1 | 0.422 | 16 µM | 0.0623 µM | 2.37 µM | 0.796 | 6.98 µM | 0.456 µM | 3.16 µM | 6.41 µM | 21 µM | 5.35 µM | 16.5 µM | 3.68 µM | 12.6 µM | < 0.01 µM | 1.28 µM | 15.5 | 31.5 µM | 4.62 µM | 12.1 µM |
| CC(=O)N[C@H]1C=C[C@@H]2/C=C(C)/C=C/[C@@H](C)[C@H]([C@H](C)[C@H](O)[C@@H](C)NC(C)=O)OC(=O)/C=C/C=C(C)\C=C\[C@]2(C)C1 |  | 4.65 µM and > 45 µM | 0.0368 µM and 0.00931 µM | 4.65 µM and 8.99 µM |  | 4.65 µM and > 45 µM | 0.0184 µM and 0.0045 µM | 4.65 µM and 20.3 µM | 0.0215 µM and 0.00532 µM | 4.65 µM and > 45 µM | 0.0294 µM and 0.00897 µM | 4.65 µM and > 45 µM | 0.00384 µM and 0.0045 µM | 4.65 µM and > 45 µM | 0.0107 µM and 0.0045 µM | 4.65 µM and 24.6 µM |  | 4.65 µM and > 45 µM | 0.0161 µM and 0.0045 µM | 4.65 µM and 3.28 µM |
| ClCc1cccc(Cn2cnc3c(NC45CC6CC(CC(C6)C4)C5)ncnc32)c1 | 20.5 | 37.5 µM | 17.4 µM | 39.2 µM | 19.6 | 46.4 µM |  | 18.9 µM | 18.3 µM | 45.8 µM | 17.3 µM | 46.6 µM | 23.9 µM | > 100 µM | 16.9 µM | 32.4 µM | 21.7 | > 60.1 µM | 23.4 µM | 68.2 µM |
